Drawing on patent publication US10947227B2, “Tricyclic heterocyclic compounds as sting activators” (Incyte Corporation, priority 2018, dated 2021), this text covers EC50 for twelve compounds.

The structures appear in SMILES notation.

For the assay, the system named is IRF3 activation in THP-1 Dual Cells. Description: IRF3 activation assay in THP-1 Dual Cells (QUANTI-Blue readout). The settings on record: Homo sapiens, THP1-Dual, 24 h. Type of assay: cell-based. As for the experimental part:
THP-1 Dual Cells (Invivogen) were maintained in RPMI1640 medium with addition of 10% FBS, 100 μg/ml zeocin, 10 μg/ml blasticidin. Cells were added in a 96-well flat bottom assay plate at 100,000 per well in 100 μL complete RPMI medium. Test compounds were prepared by serial dilution in complete RPMI medium and 100 μL test compounds were transferred to each corresponding well. The assay plate was incubated at 37° C., 5% CO2 for 24 hours. After the overnight incubation, 20 μL of the culture supernatants were collected, followed by addition of 180 μL of QUANTI-Blue (Invivogen) to assess IRF3 activity. The amount of IRF3 activation was assessed by reading the absorbance at 620-655 nm with a microplate reader 2 hours later. The culture supernatant from the untreated THP-1 cells was used as the negative control. To determine the NF-κB activation, another 20 μL of culture supernatant were transferred to a 96-well white plate, followed by addition of 50 μL of Quanti-Luc™ assay solution (Invivogen). The amount of NF-κB activation induced by the test compounds were determined by the luminescence above the untreated control. EC50 determination was performed by fitting the curve of percent control activity versus the log of the compound concentration using the GraphPad Prism 6.0 software.

What is called EC50 is the concentration that produces a half-maximal response. A higher EC50 goes with a less potent agent. `CCn1nc(C)cc1C(=O)Nc1nc2cc(C(N)=O)cc(OCCCO)c2n1C/C=C/Cn1c2ccc(C(N)=O)cc2c2cnc(-c3cc(C)nn3CC)nc21` [Example 18, (E)-9-(4-(5-carbamoyl-2-(1-ethyl-3-methyl-1H-pyrazole-5-carboxamido)-7-(3-hydroxypropoxy)-1H-benzo[d]imidazol-1-yl)but-2-en-1-yl)-2-(1-ethyl-3-methyl-1H-pyrazol-5-yl)-9H-pyrimido[4,5-b]indole-6-carboxamide]: the EC50 was < 0.2 µM (Table 1, 24 hours incubation) and < 0.05 µM (Table 2, 24 hours incubation). As for `CCn1nc(C)cc1C(=O)Nc1nc2cc(C(N)=O)cc(OCCCOC(=O)c3cc(C)nn3CC)c2n1C/C=C/Cn1c2nc(-c3cc(C)nn3CC)ncc2c2cc(C(N)=O)cc(OCCCN3CCOCC3)c21` [Example 19, (E)-3-((5-carbamoyl-1-(4-(6-carbamoyl-2-(1-ethyl-3-methyl-1H-pyrazol-5-yl)-8-(3-morpholinopropoxy)-9H-pyrimido[4,5-b]indol-9-yl)but-2-en-1-yl)-2-(1-ethyl-3-methyl-1H-pyrazole-5-carboxamido)-1H-benzo[d]imidazol-7-yl)oxy)propyl 1-ethyl-3-methyl-1H-pyrazole-5-carboxylate], the EC50 was < 0.2 µM (Table 1, 24 hours incubation) and < 0.05 µM (Table 2, 24 hours incubation). For `CCn1nc(C)cc1C(=O)Nc1nc2cc(C(N)=O)cc(OCCCO)c2n1C/C=C/Cn1c2nc(-c3cc(C)nn3CC)ncc2c2cc(C(N)=O)cc(OCCCN3CCOCC3)c21` [Example 20, (E)-9-(4-(5-carbamoyl-2-(1-ethyl-3-methyl-1H-pyrazole-5-carboxamido)-7-(3-hydroxypropoxy)-1H-benzo[d]imidazol-1-yl)but-2-en-1-yl)-2-(1-ethyl-3-methyl-1H-pyrazol-5-yl)-8-(3-morpholinopropoxy)-9H-pyrimido[4,5-b]indole-6-arboxamide], the EC50 was < 0.2 µM (Table 1, 24 hours incubation) and < 0.05 µM (Table 2, 24 hours incubation).

`CCn1nc(C)cc1C(=O)Nc1nc2cc(C(N)=O)cc(OCCCOC(=O)c3cc(C)nn3CC)c2n1C/C=C/Cn1c2nc(-c3cc(C)nn3CC)ncc2c2cc(C(N)=O)cc(OCCCOC)c21` [Example 21, (E)-3-((5-carbamoyl-1-(4-(6-carbamoyl-2-(1-ethyl-3-methyl-1H-pyrazol-5-yl)-8-(3-methoxypropoxy)-9H-pyrimido[4,5-b]indol-9-yl)but-2-en-1-yl)-2-(1-ethyl-3-methyl-1H-pyrazole-5-carboxamido)-1H-benzo[d]imidazol-7-yl)oxy)propyl 1-ethyl-3-methyl-1H-pyrazole-5-carboxylate]: the EC50 (Table 1, 24 hours incubation) was < 0.2 µM and the EC50 (Table 2, 24 hours incubation) is < 0.05 µM. Turning to `CCn1nc(C)cc1C(=O)Nc1nc2cc(C(N)=O)cc(OCCCO)c2n1C/C=C/Cn1c2nc(-c3cc(C)nn3CC)ncc2c2cc(C(N)=O)cc(OCCCOC)c21` [Example 22, (E)-9-(4-(5-carbamoyl-2-(1-ethyl-3-methyl-1H-pyrazole-5-carboxamido)-7-(3-hydroxypropoxy)-1H-benzo[d]imidazol-1-yl)but-2-en-1-yl)-2-(1-ethyl-3-methyl-1H-pyrazol-5-yl)-8-(3-methoxypropoxy)-9H-pyrimido[4,5-b]indole-6-carboxamide], the EC50 was < 0.2 µM (Table 1, 24 hours incubation) and < 0.05 µM (Table 2, 24 hours incubation). Regarding `CCn1nc(C)cc1C(=O)Nc1nc2cc(C(N)=O)cc(C)c2n1C/C=C/Cn1c2ccc(C(N)=O)cc2c2cnc(-c3cc(C)nn3CC)c(F)c21` [Example 23, (E)-5-(4-(5-carbamoyl-2-(1-ethyl-3-methyl-1H-pyrazole-5-carboxamido)-7-methyl-1H-benzo[d]imidazol-1-yl)but-2-en-1-yl)-3-(1-ethyl-3-methyl-1H-pyrazol-5-yl)-4-fluoro-5H-pyrido[4,3-b]indole-8-carboxamide], the EC50 (Table 1, 24 hours incubation) is < 0.2 µM and the concentration giving a half-maximal response (EC50) (Table 2, 24 hours incubation) is 0.05 to 0.2 µM. As to `CCn1nc(C)cc1C(=O)Nc1nc2cc(C(N)=O)cc(C)c2n1C/C=C/Cn1c2ccc(C(N)=O)cc2c2cc(F)c(-c3cc(C)nn3CC)nc21` [Example 24, (E)-9-(4-(5-carbamoyl-2-(1-ethyl-3-methyl-1H-pyrazole-5-carboxamido)-7-methyl-1H-benzo[d]imidazol-1-yl)but-2-en-1-yl)-2-(1-ethyl-3-methyl-1H-pyrazol-5-yl)-3-fluoro-9H-pyrido[2,3-b]indole-6-carboxamide], the EC50 was < 0.2 µM (Table 1, 24 hours incubation) and < 0.05 µM (Table 2, 24 hours incubation).

Turning to `CCn1nc(C)cc1C(=O)Nc1nc2cc(C(N)=O)cc(C)c2n1C/C=C/Cn1c2ccc(C(N)=O)cc2c2cc(C#N)c(-c3cc(C)nn3CC)nc21` [Example 25, (E)-9-(4-(5-carbamoyl-2-(1-ethyl-3-methyl-1H-pyrazole-5-carboxamido)-7-methyl-1H-benzo[d]imidazol-1-yl)but-2-en-1-yl)-3-cyano-2-(1-ethyl-3-methyl-1H-pyrazol-5-yl)-9H-pyrido[2,3-b]indole-6-carboxamide], the EC50 is < 1 µM (Table 1, 24 hours incubation) and 0.2 to 0.5 µM (Table 2, 24 hours incubation). On the same counts, the results for `CCn1nc(C)cc1C(=O)Nc1nc2cc(C(N)=O)cc(C)c2n1C/C=C/Cn1c2ccc(C(N)=O)cc2c2cnc(-c3cc(C)nn3CC)c(C#N)c21` [Example 26, (E)-5-(4-(5-carbamoyl-2-(1-ethyl-3-methyl-1H-pyrazole-5-carboxamido)-7-methyl-1H-benzo[d]imidazol-1-yl)but-2-en-1-yl)-4-cyano-3-(1-ethyl-3-methyl-1H-pyrazol-5-yl)-5H-pyrido[4,3-b]indole-8-carboxamide] are < 1 µM and 0.5 to 1 µM. On to `CCn1nc(C)cc1C(=O)Nc1nc2cc(C(N)=O)cc(OCCCN3CCOCC3)c2n1C/C=C/Cn1c2nc(-c3cc(C)nn3CC)ncc2c2cc(C(N)=O)cc(OCCCOC)c21` [Example 27, (E)-9-(4-(5-carbamoyl-2-(1-ethyl-3-methyl-1H-pyrazole-5-carboxamido)-7-(3-morpholinopropoxy)-1H-benzo[d]imidazol-1-yl)but-2-en-1-yl)-2-(1-ethyl-3-methyl-1H-pyrazol-5-yl)-8-(3-methoxypropoxy)-9H-pyrimido[4,5-b]indole-6-carboxamide], for which the EC50 is, setting by setting: (Table 1, 24 hours incubation) < 0.2 µM; (Table 2, 24 hours incubation) < 0.05 µM. In the same order, the values of `CCn1nc(C)cc1C(=O)Nc1nc2cc(C(N)=O)cc(O)c2n1C/C=C/Cn1c2nc(-c3cc(C)nn3CC)ncc2c2cc(C(N)=O)cc(OCCCOC)c21` [Example 28, (E)-9-(4-(5-carbamoyl-2-(1-ethyl-3-methyl-1H-pyrazole-5-carboxamido)-7-hydroxy-1H-benzo[d]imidazol-1-yl)but-2-en-1-yl)-2-(1-ethyl-3-methyl-1H-pyrazol-5-yl)-8-(3-methoxypropoxy)-9H-pyrimido[4,5-b]indole-6-carboxamide] are < 0.2 µM and < 0.05 µM. As for `CCn1nc(C)cc1C(=O)Nc1nc2cc(C(N)=O)cc(OCCCC#N)c2n1C/C=C/Cn1c2nc(-c3cc(C)nn3CC)ncc2c2cc(C(N)=O)cc(OCCCOC)c21` [Example 29, (E)-9-(4-(5-carbamoyl-7-(3-cyanopropoxy)-2-(1-ethyl-3-methyl-1H-pyrazole-5-carboxamido)-1H-benzo[d]imidazol-1-yl)but-2-en-1-yl)-2-(1-ethyl-3-methyl-1H-pyrazol-5-yl)-8-(3-methoxypropoxy)-9H-pyrimido[4,5-b]indole-6-carboxamide], the EC50 (Table 2, 24 hours incubation) was < 0.05 µM.
